Test results reported in patent publication US8455469B2, “Use of norgestimate as a selective inhibitor of TRPC3, TRPC6 and TRPC7 ion channels” (Sanofi, priority 2007, dated 2013).

Legend:
[1] = target: T1, TRPC6 (Homo sapiens, UniProt Q9Y210); assay: Whole-cell patch clamp, AlF4- activated TRPC6 HEK293 cells; type: cell-based; details: 10 μM La3+, used for background calculation
T1 construct: expressed in transfected cells; host or cells: HEK293 (inducible expression)
T1 sequence (Q9Y210 1-931): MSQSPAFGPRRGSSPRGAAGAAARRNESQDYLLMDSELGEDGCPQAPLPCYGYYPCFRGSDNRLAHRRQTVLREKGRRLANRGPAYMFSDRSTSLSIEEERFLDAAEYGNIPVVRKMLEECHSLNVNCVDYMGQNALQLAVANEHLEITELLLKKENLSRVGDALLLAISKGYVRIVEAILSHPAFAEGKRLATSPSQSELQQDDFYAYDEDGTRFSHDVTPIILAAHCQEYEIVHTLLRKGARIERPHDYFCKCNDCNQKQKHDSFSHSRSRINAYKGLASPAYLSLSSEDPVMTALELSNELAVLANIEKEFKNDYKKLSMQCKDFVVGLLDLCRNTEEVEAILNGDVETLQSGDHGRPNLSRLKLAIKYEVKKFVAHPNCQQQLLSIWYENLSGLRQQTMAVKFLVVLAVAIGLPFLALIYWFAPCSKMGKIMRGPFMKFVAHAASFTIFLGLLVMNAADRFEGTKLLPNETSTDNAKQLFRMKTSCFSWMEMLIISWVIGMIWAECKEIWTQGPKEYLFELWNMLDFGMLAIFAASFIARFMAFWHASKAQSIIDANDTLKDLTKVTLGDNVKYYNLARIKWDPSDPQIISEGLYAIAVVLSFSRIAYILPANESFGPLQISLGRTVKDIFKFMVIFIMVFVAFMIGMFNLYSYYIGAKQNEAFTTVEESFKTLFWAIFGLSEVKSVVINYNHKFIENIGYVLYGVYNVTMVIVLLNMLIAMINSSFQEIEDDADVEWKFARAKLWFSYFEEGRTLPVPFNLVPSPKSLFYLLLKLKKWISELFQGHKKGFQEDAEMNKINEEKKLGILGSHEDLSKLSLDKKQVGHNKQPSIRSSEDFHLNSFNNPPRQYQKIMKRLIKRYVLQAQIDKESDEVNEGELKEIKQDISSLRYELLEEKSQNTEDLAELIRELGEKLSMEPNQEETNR
From the text: Inhibition of TRPC6- and TRPC5-mediated Ca^2+ -influx by norgestimate monitored in fluorometric experiments with cell populations was validated and compared with whole-cell patch clamp recordings of single cells. Channels were indirectly excited with the same stimulus for better comparability of the norgestimate effect. Aluminium tetrafluoride (AIF^4−) applied intracellularly via the patch pipette activates G-proteins by mimicking GTP (Sternweis & Gilman, 1982; Bigay et al., 1987). Subsequently TRPC channels are stimulated and mediate non-specific cationic currents (FIG. 3 A, B) When 10 μM norgestimate were applied to activated TRPC6 channels, 89.9 ±3.1% (n=15) of the current measured at resting membrane potential was blocked. This inhibition was reversible as current amplitude increased after norgestimate wash out (FIG. 3 A).
(§1) Effect of 10 μM norgestimate (NG) on whole-cell currents evoked by AlF4^− infusion into induced TRPC6— (A) and TRPC5 HEK 293 (B) cells. Whole cell currents recorded at −70 mV (left panels) and the corresponding current-voltage (I-V) relationships are shown (right panels). […] The curves were obtained during voltage ramps from −100 to +80 mV. (C) Statistical analysis of the norgestimate effect on TRPC5— and TRPC6-mediated currents. 10 μM norgestimate inhibit 25.9±5.7% (n=20) of TRPC5-mediated currents and 89.9±3.1% (n=15) of TRPC6-mediated currents (P<0.001, Wilcoxon test, two-sided).

[2] = target: T2, TRPC5 (Homo sapiens, UniProt Q9UL62); details: micromolar concentrations (Jung et al., 2003); cited from earlier work
T2 construct: expressed in transfected cells; host or cells: HEK293 FITR (inducible expression)
T2 sequence (Q9UL62 1-973): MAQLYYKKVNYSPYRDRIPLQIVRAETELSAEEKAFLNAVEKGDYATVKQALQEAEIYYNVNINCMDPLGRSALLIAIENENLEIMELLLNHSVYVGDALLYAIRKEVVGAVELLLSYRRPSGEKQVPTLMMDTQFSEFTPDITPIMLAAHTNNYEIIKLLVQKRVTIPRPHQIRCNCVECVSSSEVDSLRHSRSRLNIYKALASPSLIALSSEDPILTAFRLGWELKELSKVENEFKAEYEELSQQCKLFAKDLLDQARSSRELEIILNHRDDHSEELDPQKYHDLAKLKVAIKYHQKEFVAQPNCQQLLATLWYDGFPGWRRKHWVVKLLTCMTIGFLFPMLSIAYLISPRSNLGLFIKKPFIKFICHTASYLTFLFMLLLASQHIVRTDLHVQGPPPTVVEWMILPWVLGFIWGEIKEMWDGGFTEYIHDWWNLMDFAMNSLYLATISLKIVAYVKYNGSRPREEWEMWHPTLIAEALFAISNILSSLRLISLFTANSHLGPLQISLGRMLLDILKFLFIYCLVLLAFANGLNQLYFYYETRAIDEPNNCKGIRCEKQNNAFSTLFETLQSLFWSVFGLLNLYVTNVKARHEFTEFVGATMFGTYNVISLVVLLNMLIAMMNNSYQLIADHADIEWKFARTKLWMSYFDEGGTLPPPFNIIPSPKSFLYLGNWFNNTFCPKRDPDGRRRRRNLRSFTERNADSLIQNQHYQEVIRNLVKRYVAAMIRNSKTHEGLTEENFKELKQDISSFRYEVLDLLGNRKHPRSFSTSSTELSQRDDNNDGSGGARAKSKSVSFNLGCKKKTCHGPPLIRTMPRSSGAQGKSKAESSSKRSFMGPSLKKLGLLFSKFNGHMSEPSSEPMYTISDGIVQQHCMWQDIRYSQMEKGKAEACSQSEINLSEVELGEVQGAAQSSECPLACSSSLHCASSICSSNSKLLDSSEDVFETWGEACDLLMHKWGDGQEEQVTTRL

[3] = target: T2, TRPC5; assay: Whole-cell patch clamp, AlF4- activated TRPC5 HEK293 cells; type: cell-based; details: 10 μM 2-APB, used for background calculation
Procedure: Channels were indirectly excited with the same stimulus for better comparability of the norgestimate effect. Aluminium tetrafluoride (AIF^4−) applied intracellularly via the patch pipette activates G-proteins by mimicking GTP (Sternweis & Gilman, 1982; Bigay et al., 1987).
Since these channels are potentiated by micromolar La^3+ concentrations (Jung et al., 2003), 2-aminoethoxydiphenyl borate (2-APB), a characterized TRPC5 blocker (Xu et al., 2005) was used instead.
as §1, with “currents.” for “currents. 10 μM norgestimate inhibit 25.9±5.7% (n=20) of TRPC5-mediated currents and 89.9±3.1% (n=15) of TRPC6-mediated currents (P<0.001, Wilcoxon test, two-sided).”

block of TRPC5 channel [3]	SMILES	block of TRPC6 current [1]	block of TRPC6 current ([1]; listed as La^3+)	effect of micromolar La3+ concentrations on TRPC5 channels [2]
	[La] [lanthanum]	complete and reversible	completely blocked	potentiated
completely and reversibly blocked	NCCOB(c1ccccc1)c1ccccc1 [2-APB, 2-aminoethoxydiphenyl borate]			
